Data: article PMC3237616 (Molecular Biology of the Cell, 2011)

Test system: PIK (PI4K; phosphatidylinositol 4-kinase)
Assay: radiometric PtdInsP formation from […]-ATP, Lineweaver-Burk
Assay type: biochemical, Mus musculus
Settings: co-substrate 32P-ATP; 25 °C; 10 min; cell homogenate; without added c-Fos

PtdIns
Km: 254 µM
